Tests used:
D3R [1] = molecular target: T1, D3R (Homo sapiens, UniProt P35462); experiment: Radioligand binding, [125I]IABN, HEK cells expressing human D3; conditions: for D2/D3 ratio: (Ki for D2 receptors)/(Ki for D3 receptors)
D3R [2] = molecular target: T1, D3R; experiment: Dopamine-mediated β-arrestin 2 recruitment assay; assay type: cell-based; conditions: DA as orthosteric ligand
[3] = molecular target: serotonin subclass receptors; experiment: PDSP binding, serotonin subclass receptors; conditions: read-out: Ki for all of the serotonin subclass receptors
α2β2 = α2β2 (Rattus norvegicus, UniProt P12389+P12390); experiment: PDSP binding, α2β2; conditions: read-out: inhibition in primary assay at 10 μM
α2β4 = α2β4 (Rattus norvegicus, UniProt P12389+P12392); experiment: PDSP binding, α2β4; conditions: read-out: inhibition in primary assay at 10 μM
α3β2 = α3β2 (Rattus norvegicus, UniProt P04757+P12390); experiment: PDSP binding, α3β2; conditions: read-out: inhibition in primary assay at 10 μM
α4β4 = α4β4 (Rattus norvegicus, UniProt P09483+P12392); experiment: PDSP binding, α4β4; conditions: read-out: inhibition in primary assay at 10 μM
D2R = D2R (Homo sapiens, UniProt P14416); experiment: PDSP β-arrestin recruitment Tango assay, D2R; assay type: cell-based; conditions: Tango assays, agonist and antagonist mode
D3R [4] = molecular target: T1, D3R; experiment: PDSP β-arrestin recruitment Tango assay, D3R; assay type: cell-based; conditions: Tango assays, agonist and antagonist mode
α3β4 = α3β4 (Rattus norvegicus, UniProt P04757+P12392); experiment: PDSP binding, α3β4; conditions: read-out: inhibition in primary assay at 10 μM
human D2 (long) = human D2 (long) (Homo sapiens, UniProt P14416); experiment: Radioligand binding, [125I]IABN, HEK cells expressing human D2; conditions: human D2 in HEK cells, mean ± SEM, at least three experiments
Sequence of human D2 (long) (P14416 whole entry): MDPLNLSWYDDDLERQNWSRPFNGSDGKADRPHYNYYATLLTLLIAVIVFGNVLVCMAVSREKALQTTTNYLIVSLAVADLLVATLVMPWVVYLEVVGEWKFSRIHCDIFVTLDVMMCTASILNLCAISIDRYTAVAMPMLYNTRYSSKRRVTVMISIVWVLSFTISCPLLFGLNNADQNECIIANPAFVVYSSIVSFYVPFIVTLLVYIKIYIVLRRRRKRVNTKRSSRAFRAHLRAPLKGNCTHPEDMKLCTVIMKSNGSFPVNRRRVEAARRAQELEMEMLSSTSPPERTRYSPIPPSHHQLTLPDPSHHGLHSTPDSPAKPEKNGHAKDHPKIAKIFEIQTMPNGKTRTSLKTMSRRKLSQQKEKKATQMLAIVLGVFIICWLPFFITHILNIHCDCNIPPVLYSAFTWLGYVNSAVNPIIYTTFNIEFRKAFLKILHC

T1 sequence (P35462 whole entry): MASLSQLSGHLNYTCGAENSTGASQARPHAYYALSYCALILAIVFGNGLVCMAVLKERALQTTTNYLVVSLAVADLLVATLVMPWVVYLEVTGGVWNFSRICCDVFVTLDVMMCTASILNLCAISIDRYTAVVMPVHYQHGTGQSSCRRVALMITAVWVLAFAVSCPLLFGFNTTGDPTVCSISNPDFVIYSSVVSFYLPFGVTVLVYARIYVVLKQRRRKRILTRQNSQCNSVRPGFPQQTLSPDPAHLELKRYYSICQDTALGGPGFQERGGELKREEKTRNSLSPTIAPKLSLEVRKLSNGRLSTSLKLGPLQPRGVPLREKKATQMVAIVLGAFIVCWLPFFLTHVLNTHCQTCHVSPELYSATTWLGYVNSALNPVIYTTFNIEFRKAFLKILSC
Sequence of α4β4 (P09483 31-630): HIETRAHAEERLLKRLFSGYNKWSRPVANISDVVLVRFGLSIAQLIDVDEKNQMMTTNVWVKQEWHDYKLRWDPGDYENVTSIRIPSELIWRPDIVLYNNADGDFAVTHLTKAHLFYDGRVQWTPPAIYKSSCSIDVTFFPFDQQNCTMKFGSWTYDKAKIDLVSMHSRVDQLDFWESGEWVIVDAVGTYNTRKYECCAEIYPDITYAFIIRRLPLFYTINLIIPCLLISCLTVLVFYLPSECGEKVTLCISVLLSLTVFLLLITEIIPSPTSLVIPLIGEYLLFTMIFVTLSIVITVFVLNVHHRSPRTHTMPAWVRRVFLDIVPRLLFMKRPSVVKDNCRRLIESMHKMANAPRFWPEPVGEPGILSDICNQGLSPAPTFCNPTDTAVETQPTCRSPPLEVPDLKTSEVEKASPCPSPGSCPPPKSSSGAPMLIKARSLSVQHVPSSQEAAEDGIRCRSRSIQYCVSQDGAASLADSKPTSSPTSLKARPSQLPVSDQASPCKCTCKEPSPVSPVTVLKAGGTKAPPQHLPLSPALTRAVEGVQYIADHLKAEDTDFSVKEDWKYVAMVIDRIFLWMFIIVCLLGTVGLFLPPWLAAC
Sequence of α4β4 (P12392 21-495): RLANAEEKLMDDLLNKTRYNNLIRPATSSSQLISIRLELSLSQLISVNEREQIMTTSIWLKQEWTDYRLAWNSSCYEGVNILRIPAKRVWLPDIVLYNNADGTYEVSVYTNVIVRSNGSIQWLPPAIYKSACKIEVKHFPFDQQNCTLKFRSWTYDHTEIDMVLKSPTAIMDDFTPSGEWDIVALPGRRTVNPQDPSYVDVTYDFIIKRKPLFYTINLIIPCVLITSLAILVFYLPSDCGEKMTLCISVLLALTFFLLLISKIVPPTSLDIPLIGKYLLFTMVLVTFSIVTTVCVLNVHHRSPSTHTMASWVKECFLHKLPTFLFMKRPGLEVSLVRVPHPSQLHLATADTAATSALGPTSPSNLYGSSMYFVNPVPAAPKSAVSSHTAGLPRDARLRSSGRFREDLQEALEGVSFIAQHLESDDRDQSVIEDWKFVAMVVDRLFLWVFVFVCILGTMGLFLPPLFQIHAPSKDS
Sequence of α3β2 (P04757 26-499): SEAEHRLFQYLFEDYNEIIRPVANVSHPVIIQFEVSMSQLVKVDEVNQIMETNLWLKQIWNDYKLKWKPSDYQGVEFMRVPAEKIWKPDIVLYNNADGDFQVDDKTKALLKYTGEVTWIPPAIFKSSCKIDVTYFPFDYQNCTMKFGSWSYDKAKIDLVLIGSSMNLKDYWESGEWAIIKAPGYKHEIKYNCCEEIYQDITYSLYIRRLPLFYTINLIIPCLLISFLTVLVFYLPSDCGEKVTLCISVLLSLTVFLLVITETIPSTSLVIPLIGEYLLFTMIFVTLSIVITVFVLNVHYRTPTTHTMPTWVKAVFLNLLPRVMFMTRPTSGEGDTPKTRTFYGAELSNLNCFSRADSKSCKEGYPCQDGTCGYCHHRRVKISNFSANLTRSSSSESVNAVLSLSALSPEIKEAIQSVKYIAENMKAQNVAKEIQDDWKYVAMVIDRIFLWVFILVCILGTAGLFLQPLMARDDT
Sequence of α3β2 (P12390 25-500): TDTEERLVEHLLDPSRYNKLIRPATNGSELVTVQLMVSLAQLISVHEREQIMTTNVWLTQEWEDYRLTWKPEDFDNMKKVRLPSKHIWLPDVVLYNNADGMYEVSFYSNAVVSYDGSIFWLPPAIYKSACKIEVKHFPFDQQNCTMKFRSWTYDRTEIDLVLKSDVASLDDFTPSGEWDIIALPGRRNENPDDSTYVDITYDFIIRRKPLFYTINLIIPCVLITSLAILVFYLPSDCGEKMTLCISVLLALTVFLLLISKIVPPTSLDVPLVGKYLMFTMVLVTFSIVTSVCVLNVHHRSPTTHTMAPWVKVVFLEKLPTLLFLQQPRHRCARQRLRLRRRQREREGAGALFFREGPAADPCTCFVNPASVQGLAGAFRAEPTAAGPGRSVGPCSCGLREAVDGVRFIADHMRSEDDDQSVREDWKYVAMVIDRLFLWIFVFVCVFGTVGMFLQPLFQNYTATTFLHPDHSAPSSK
Sequence of α2β4 (P12389 28-511): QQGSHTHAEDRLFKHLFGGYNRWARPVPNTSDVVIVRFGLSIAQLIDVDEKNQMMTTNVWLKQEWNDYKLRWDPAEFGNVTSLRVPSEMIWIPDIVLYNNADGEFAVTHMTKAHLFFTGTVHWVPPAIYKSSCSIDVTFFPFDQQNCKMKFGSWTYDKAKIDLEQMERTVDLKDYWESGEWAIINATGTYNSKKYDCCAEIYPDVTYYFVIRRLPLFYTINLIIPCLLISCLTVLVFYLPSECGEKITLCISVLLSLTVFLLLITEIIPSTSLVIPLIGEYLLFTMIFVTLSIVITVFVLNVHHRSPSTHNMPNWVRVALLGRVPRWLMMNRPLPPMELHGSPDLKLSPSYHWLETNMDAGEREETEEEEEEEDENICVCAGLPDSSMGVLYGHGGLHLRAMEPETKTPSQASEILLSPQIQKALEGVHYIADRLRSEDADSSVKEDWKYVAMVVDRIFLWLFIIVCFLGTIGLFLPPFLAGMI
Sequence of α2β4 (P12392 21-495): as the sequence (P12392 21-495) above
Sequence of α2β2 (P12389 28-511): as the sequence (P12389 28-511) above
Sequence of α2β2 (P12390 25-500): as the sequence (P12390 25-500) above
Sequence of D2R (P14416 whole entry): as the sequence (P14416 whole entry) above
Sequence of α3β4 (P04757 26-499): as the sequence (P04757 26-499) above
Sequence of α3β4 (P12392 21-495): as the sequence (P12392 21-495) above

COc1ccccc1N1CCC2(CCN(CCSc3nnc(-c4ccccc4)n3C)CC2)CC1 [Compound 20, 3-(2-Methoxyphenyl)-9-(2-((4-methyl-5-phenyl-4H-1,2,4-triazol-3-yl)thio)ethyl)-3,9-diazaspiro[5.5]undecane]
D2/D3 ratio (D3R [1]): 100

COc1ccccc1N1CCC2(CCN(CCCSc3nnc(-c4ccccc4)n3C)CC2)CC1 [Compound 1, 3-(2-methoxyphenyl)-9-(3-((4-methyl-5-phenyl-4H-1,2,4-triazol-3-yl)thio)-propyl)-3,9-diazaspiro[5.5]undecane]
Schild plot regression slope (D3R [2]): linear regression slope near unity | shift of dopamine dose-response curves (D3R [2]): limitless rightward shift | Ki [3]: > 1000 nM | inhibition at 10 µM (α2β2): < 50% | inhibition at 10 µM (α2β4): < 50% | inhibition at 10 µM (α3β2): < 50% | inhibition at 10 µM (α4β4): < 50%

CCCCN1CCC2(CC1)CCN(c1ccccc1OC)CC2 [Compound 5a, 3-Butyl-9-(2-methoxyphenyl)-3,9-diazaspiro[5.5]undecane]
D2/D3 ratio (D3R [1]): >9.6

3-(2-((4-Methyl-5-phenyl-4H-1,2,4-triazol-3-yl)thio)propyl)-3,9-diazaspiro[5.5]undecane [Compound 6f]
D2/D3 ratio (D3R [1]): >197

COc1ccccc1N1CCC2(CCN(CCCSc3nnc(-c4ccccc4)n3C)C2)CC1 [Compound 34, 8-(2-Methoxyphenyl)-2-(3-((4-methyl-5-phenyl-4H-1,2,4-triazol-3-yl)thio)propyl)-2,8-diazaspiro[4.5]decane]
increase in receptor selectivity (D3R [1]; relative to 33): 2 fold

COc1ccccc1N1CCC2(CCN(CCCSc3nnc(-c4ccccc4)[nH]3)CC2)CC1 [Compound 17, 3-(2-Methoxyphenyl)-9-(3-((5-phenyl-4H-1,2,4-triazol-3-yl)thio)-propyl)-3,9-diazaspiro[5.5]undecane]
D2/D3 ratio (D3R [1]): 35

CCCCN1CCC2(CCN(c3ccccc3OC)C2)C1 (stereo not shown) [Compound 5c, 2-Butyl-7-(2-methoxyphenyl)-2,7-diazaspiro[4.4]nonane]
D2/D3 ratio (D3R [1]): >1.1

COc1ccccc1N1CCN(CCCSc2nnc(-c3ccccc3)n2C)CC1 [Compound 31]
shift of dopamine dose-response curves (D3R [2]): limitless rightward shift | functional behavior at D2R (D2R): weak agonist/antagonist | functional behavior at D3R (D3R [4]): weak agonist/antagonist | inhibition at 10 µM (α2β2): < 50% | inhibition at 10 µM (α2β4): < 50% | inhibition at 10 µM (α3β2): < 50% | inhibition at 10 µM (α3β4): < 50% | inhibition at 10 µM (α4β4): < 50%

CCCSc1nnc(-c2ccccc2)n1C [Compound 6a, 4-Methyl-3-phenyl-5-(propylthio)-4H-1,2,4-triazole]
D2/D3 ratio (D3R [1]): >3.6

COc1ccccc1N1CCC2(CCNCC2)CC1 [4b]
D2/D3 ratio (D3R [1]): >2.5 | Ki ± SEM D3R (D3R [1]; human D3 in HEK cells, [125I]IABN, mean ± SEM, at least three experiments): >39,319 nM | Ki ± SEM D2R (human D2 (long)): 99,379 ± 11,752 nM

Reference: publication PMC12079613 (Journal of medicinal chemistry, 2019)
